# Data from US20200306295A1, “METHOD AND DEVICE FOR ANNIHILATION OF Staphylococcus aureus” (priority 2017, published 2020).
# System: 200 kinds of cytokines
# Test: Fold change of 200 cytokines in homogenized wound tissue
# Assay type: in vivo, Balb/c mice
# Source text: To quantify the physiological condition of the wound tissues, we measured the concentrations of 200 kinds of cytokines (Table. 1) from the supernatant of homogenized tissue solution. Cytokines are small secreted proteins released by cells and have specific effect on the interactions and communications between cells (25).
# To initiate the formation of a skin wound, five groups (n=5) of eight-week old female Balb/c mice (obtained from Harlan Laboratories, Indianapolis, Ind., USA) were disinfected with ethanol (70%) and shaved on the middle of the back (approximately a one-inch by one-inch square region around the injection site) one day prior to infection as described from a reported procedure (3). To prepare the bacterial inoculum, an aliquot of overnight culture of MRSA USA300 was transferred to fresh Tryptic soy broth and shaken at 37° C. until an OD600 value of ˜1.0 was achieved. The cells were centrifuged, washed once with PBS, re-centrifuged, and then re-suspended in PBS. Mice subsequently received an intradermal injection (40 μL) containing 2.40×10^9 CFU/mL MRSA USA300.
# One group of mice was left untreated (negative control). Each group of mice receiving a particular treatment regimen was housed separately in a ventilated cage with appropriate bedding, food, and water. […] Mice were treated twice daily (once every 12 hours) for three days, before they were humanely euthanized via CO2 asphyxiation 12 hours after the last dose was administered. The region around the skin wound was lightly swabbed with ethanol (70%) and excised. The tissue was subsequently homogenized in PBS. The homogenized tissue was then serially diluted in PBS before plating onto mannitol salt agar plates. Plates were incubated for at least 19 hours at 37° C. before viable MRSA CFU/mL were counted for each group. Outlier was removed based upon the Dixon Q Test.
compound,measurement,setting,value
"OO [H2O2, hydrogen peroxide]",share of 200 cytokines with negative fold change vs untreated,blue light and H2O2-treated group,Over 85%
same,fold change of MBL-2 (mean),"cytokine MBL-2, group mean, wound tissue of MRSA-infected mice",−0.0587
same,fold change of Meteorin (mean),"cytokine Meteorin, group mean, wound tissue of MRSA-infected mice",0.4850
same,fold change of NOV (mean),"cytokine NOV, group mean, wound tissue of MRSA-infected mice",−0.1756
same,fold change of Nope (mean),"cytokine Nope, group mean, wound tissue of MRSA-infected mice",−0.2914
same,fold change of OX40 Ligand (mean),"cytokine OX40 Ligand, group mean, wound tissue of MRSA-infected mice",0.2366
same,fold change of Osteoactivin (mean),"cytokine Osteoactivin, group mean, wound tissue of MRSA-infected mice",0.4709
same,fold change of P-Cadherin (mean),"cytokine P-Cadherin, group mean, wound tissue of MRSA-infected mice",−0.0660
same,fold change of Periostin (mean),"cytokine Periostin, group mean, wound tissue of MRSA-infected mice",−0.5519
same,fold change of PlGF-2 (mean),"cytokine PlGF-2, group mean, wound tissue of MRSA-infected mice",−0.0738
same,fold change of Progranulin (mean),"cytokine Progranulin, group mean, wound tissue of MRSA-infected mice",−0.6229
same,fold change of Prostasin (mean),"cytokine Prostasin, group mean, wound tissue of MRSA-infected mice",1.1226
same,fold change of Renin 1 (mean),"cytokine Renin 1, group mean, wound tissue of MRSA-infected mice",−0.3457
same,fold change of TIM-1 (mean),"cytokine TIM-1, group mean, wound tissue of MRSA-infected mice",−0.1106
same,fold change of Testican 3 (mean),"cytokine Testican 3, group mean, wound tissue of MRSA-infected mice",−0.1883
same,fold change of Tryptase ε (mean),"cytokine Tryptase ε, group mean, wound tissue of MRSA-infected mice",0.3620
same,fold change of 4-1BB,"mean, wound tissue",−0.2733
same,fold change of 6Ckine,"mean, wound tissue",−0.3474
same,fold change of ACE,"mean, wound tissue",−0.8627
same,fold change of ADAMTS1,"mean, wound tissue",0.1068
same,fold change of ALK-1,"mean, wound tissue",−0.1821
same,fold change of ANG-3,"mean, wound tissue",−0.1019
same,fold change of ANGPTL3,"mean, wound tissue",−0.1222
same,fold change of AR,"mean, wound tissue",−0.1343
same,fold change of Activin A,"mean, wound tissue",0.0097
same,fold change of Adiponen,"mean, wound tissue",−0.0278
same,fold change of Artemin,"mean, wound tissue",0.0433
same,fold change of Axl,"mean, wound tissue",−0.1455
same,fold change of B7-1,"mean, wound tissue",0.2808
same,fold change of BAFF R,"mean, wound tissue",0.0988
same,fold change of BLC,"mean, wound tissue",−0.1960
same,fold change of BTC,"mean, wound tissue",0.9018
same,fold change of C5a,"mean, wound tissue",0.1618
same,fold change of CCL6,"mean, wound tissue",−0.3559
same,fold change of CCL28,"mean, wound tissue",−0.6841
same,fold change of CD6,"mean, wound tissue",−0.2795
same,fold change of CD27,"mean, wound tissue",0.1670
same,fold change of CD27L,"mean, wound tissue",0.1373
same,fold change of CD30,"mean, wound tissue",−0.0510
same,fold change of CD30L,"mean, wound tissue",−0.0733
same,fold change of CD36,"mean, wound tissue",−0.4456
same,fold change of CD40,"mean, wound tissue",−0.1007
same,fold change of CD40L,"mean, wound tissue",−0.2549
same,fold change of CD48,"mean, wound tissue",−0.3656
same,fold change of CRP,"mean, wound tissue",−0.2262
same,fold change of CT-1,"mean, wound tissue",−0.3499
same,fold change of CTLA4,"mean, wound tissue",−0.1747
same,fold change of CXCL16,"mean, wound tissue",−0.2162
same,fold change of Chemerin,"mean, wound tissue",−0.2510
same,fold change of Chordin,"mean, wound tissue",−0.0093
same,fold change of Clusterin,"mean, wound tissue",0.1123
same,fold change of Cystatin C,"mean, wound tissue",0.0313
same,fold change of DLL4,"mean, wound tissue",−0.0364
same,fold change of Decorin,"mean, wound tissue",−0.0051
same,fold change of Dkk-1,"mean, wound tissue",−0.4175
same,fold change of Dtk,"mean, wound tissue",−0.3288
same,fold change of E-Cadherin,"mean, wound tissue",−0.1379
same,fold change of E-selectin,"mean, wound tissue",−0.1083
same,fold change of EDAR,"mean, wound tissue",0.0841
same,fold change of EGF,"mean, wound tissue",−0.2293
same,fold change of Endocan,"mean, wound tissue",−0.0335
same,fold change of Endoglin,"mean, wound tissue",−0.6886
same,fold change of Eotaxin,"mean, wound tissue",0.8584
same,fold change of Eotaxin-2,"mean, wound tissue",−0.5961
same,fold change of Epigen,"mean, wound tissue",−0.1588
same,fold change of Epiregulin,"mean, wound tissue",−0.2878
same,fold change of Fas,"mean, wound tissue",−0.3001
same,fold change of Fas L,"mean, wound tissue",−0.2203
same,fold change of Fcg RIIB,"mean, wound tissue",0.2388
same,fold change of Fetuin A,"mean, wound tissue",−0.5133
same,fold change of Flt-3L,"mean, wound tissue",−0.2615
same,fold change of Fractalkine,"mean, wound tissue",0.4416
same,fold change of G-CSF,"mean, wound tissue",−0.4083
same,fold change of GITR,"mean, wound tissue",−0.1455
same,fold change of GITR L,"mean, wound tissue",−0.0425
same,fold change of GM-CSF,"mean, wound tissue",−0.1960
same,fold change of Galectin-1,"mean, wound tissue",−0.1195
same,fold change of Galectin-3,"mean, wound tissue",0.0550
same,fold change of Galectin-7,"mean, wound tissue",−0.3150
same,fold change of Gas 1,"mean, wound tissue",−0.7018
same,fold change of Gas 6,"mean, wound tissue",−0.3085
same,fold change of Granzyme B,"mean, wound tissue",0.2145
same,fold change of Gremlin,"mean, wound tissue",−0.8057
same,fold change of H60,"mean, wound tissue",−0.0250
same,fold change of HAI-1,"mean, wound tissue",−0.0794
same,fold change of HGF,"mean, wound tissue",0.2749
same,fold change of HGF R,"mean, wound tissue",0.0240
same,fold change of I-TAC,"mean, wound tissue",−0.1457
same,fold change of ICAM-1,"mean, wound tissue",−0.0362
same,fold change of IFNg,"mean, wound tissue",−0.2366
same,fold change of IFNg R1,"mean, wound tissue",−0.2832
same,fold change of IGF-1,"mean, wound tissue",0.2487
same,fold change of IGFBP-2,"mean, wound tissue",0.0153
same,fold change of IGFBP-3,"mean, wound tissue",−0.2116
same,fold change of IGFBP-5,"mean, wound tissue",0.0442
same,fold change of IGFBP-6,"mean, wound tissue",−0.2308
same,fold change of IL-1 R4,"mean, wound tissue",0.0090
same,fold change of IL-1a,"mean, wound tissue",0.0141
same,fold change of IL-1b,"mean, wound tissue",0.2075
same,fold change of IL-1ra,"mean, wound tissue",0.1670
same,fold change of IL-2,"mean, wound tissue",−0.1860
same,fold change of IL-2 Ra,"mean, wound tissue",0.2015
same,fold change of IL-3,"mean, wound tissue",−0.1781
same,fold change of IL-3 Rb,"mean, wound tissue",−0.0953
same,fold change of IL-4,"mean, wound tissue",−0.2011
same,fold change of IL-5,"mean, wound tissue",−0.3106
same,fold change of IL-6,"mean, wound tissue",−0.2775
same,fold change of IL-7,"mean, wound tissue",−0.0083
same,fold change of IL-7 Ra,"mean, wound tissue",−0.4620
same,fold change of IL-9,"mean, wound tissue",0.0482
same,fold change of IL-10,"mean, wound tissue",−0.1759
same,fold change of IL-12p40,"mean, wound tissue",0.0200
same,fold change of IL-12p70,"mean, wound tissue",−0.1362
same,fold change of IL-13,"mean, wound tissue",−0.4855
same,fold change of IL-15,"mean, wound tissue",−0.1351
same,fold change of IL-17,"mean, wound tissue",1.4006
same,fold change of IL-17B,"mean, wound tissue",−0.2485
same,fold change of IL-17B R,"mean, wound tissue",0.0438
same,fold change of IL-17E,"mean, wound tissue",−0.3214
same,fold change of IL-17F,"mean, wound tissue",0.6993
same,fold change of IL-20,"mean, wound tissue",−0.1274
same,fold change of IL-21,"mean, wound tissue",−0.5851
same,fold change of IL-22,"mean, wound tissue",−0.5330
same,fold change of IL-23,"mean, wound tissue",0.1392
same,fold change of IL-28,"mean, wound tissue",0.2046
same,fold change of IL-33,"mean, wound tissue",−0.6370
same,fold change of JAM-A,"mean, wound tissue",−0.2998
same,fold change of KC,"mean, wound tissue",−0.0602
same,fold change of Kremen-1,"mean, wound tissue",−0.4532
same,fold change of L-Selectin,"mean, wound tissue",−0.1755
same,fold change of LIX,"mean, wound tissue",−0.2304
same,fold change of LOX-1,"mean, wound tissue",0.0229
same,fold change of Leptin,"mean, wound tissue",−0.1401
same,fold change of Leptin R,"mean, wound tissue",−0.1563
same,fold change of Limitin,"mean, wound tissue",0.5441
same,fold change of Lipocalin-2,"mean, wound tissue",−0.0669
same,fold change of Lungkine,"mean, wound tissue",−0.0954
same,fold change of Lymphotactin,"mean, wound tissue",0.0191
same,fold change of MCP-1,"mean, wound tissue",0.9431
same,fold change of MCP-5,"mean, wound tissue",−0.8808
same,fold change of MCSF,"mean, wound tissue",−0.0002
same,fold change of MDC,"mean, wound tissue",0.5488
same,fold change of MFG-E8,"mean, wound tissue",−0.1414
same,fold change of MIG,"mean, wound tissue",−0.1127
same,fold change of MIP-1a,"mean, wound tissue",−0.3107
same,fold change of MIP-1b,"mean, wound tissue",−0.4967
same,fold change of MIP-1g,"mean, wound tissue",−0.0241
same,fold change of MIP-2,"mean, wound tissue",−0.0277
same,fold change of MIP-3a,"mean, wound tissue",0.3267
same,fold change of MIP-3b,"mean, wound tissue",−0.1993
same,fold change of MMP-2,"mean, wound tissue",−0.5768
same,fold change of MMP-3,"mean, wound tissue",−0.0983
same,fold change of MMP-10,"mean, wound tissue",−0.1476
same,fold change of MadCAM-1,"mean, wound tissue",−0.3032
same,fold change of Marapsin,"mean, wound tissue",−0.0476
same,fold change of Neprilysin,"mean, wound tissue",−0.2555
same,fold change of OPG,"mean, wound tissue",−0.2142
same,fold change of OPN,"mean, wound tissue",−0.2307
same,fold change of P-selectin,"mean, wound tissue",−0.4006
same,fold change of PDGF-AA,"mean, wound tissue",−0.4666
same,fold change of PF4,"mean, wound tissue",−0.7429
same,fold change of Pentraxin 3,"mean, wound tissue",−0.7179
same,fold change of Persephin,"mean, wound tissue",−0.3386
same,fold change of Pro-MMP-9,"mean, wound tissue",0.0213
same,fold change of Prolactin,"mean, wound tissue",0.2852
same,fold change of RAGE,"mean, wound tissue",−0.0350
same,fold change of RANTES,"mean, wound tissue",−0.4249
same,fold change of Resistin,"mean, wound tissue",−0.3623
same,fold change of SCF,"mean, wound tissue",0.1915
same,fold change of SDF-1a,"mean, wound tissue",−0.0807
same,fold change of SLAM,"mean, wound tissue",−0.0883
same,fold change of Shh-N,"mean, wound tissue",−0.1527
same,fold change of TACI,"mean, wound tissue",−0.2636
same,fold change of TARC,"mean, wound tissue",−0.4322
same,fold change of TCA-3,"mean, wound tissue",−0.2756
same,fold change of TCK-1,"mean, wound tissue",−0.4843
same,fold change of TECK,"mean, wound tissue",0.1734
same,fold change of TGFb1,"mean, wound tissue",−0.1570
same,fold change of TNF RI,"mean, wound tissue",−0.2939
same,fold change of TNF RII,"mean, wound tissue",−0.1233
same,fold change of TNFα,"mean, wound tissue",0.1039
same,fold change of TPO,"mean, wound tissue",−0.0215
same,fold change of TRANCE,"mean, wound tissue",0.0878
same,fold change of TREM-1,"mean, wound tissue",0.0703
same,fold change of TROY,"mean, wound tissue",−0.0721
same,fold change of TSLP,"mean, wound tissue",−0.1726
same,fold change of TWEAK,"mean, wound tissue",−0.1667
same,fold change of TWEAK R,"mean, wound tissue",−0.4445
same,fold change of TremL1,"mean, wound tissue",−0.2695
same,fold change of VCAM-1,"mean, wound tissue",−0.1357
same,fold change of VEGF,"mean, wound tissue",−0.0295
same,fold change of VEGF R1,"mean, wound tissue",−0.4184
same,fold change of VEGF R3,"mean, wound tissue",−0.0705
same,fold change of VEGF-B,"mean, wound tissue",−0.0693
same,fold change of VEGF-D,"mean, wound tissue",−0.0146
same,fold change of bFGF,"mean, wound tissue",−0.2542
same,fold change of gp130,"mean, wound tissue",0.1048
same,fold change of sFRP-3,"mean, wound tissue",−0.1892
